These results are taken from the NIST ThermoML archive (doi:10.1016/j.jct.2016.03.027).

A short description of the data set: wn = mass fraction of the nth substance listed. Particulars: 298.15 K, 100 kPa, Liquid, Vibrating tube method.

Structures are written as SMILES. ± gives the expanded uncertainty stated by the source.

Take `O=C1OCCO1` [ethylene carbonate] + O: the mass density reads like this: (w1 = 0.1) 1026.64 ± 1.2 kg/m3; (w1 = 0.2) 1056.71 ± 1.2 kg/m3; (w1 = 0.3) 1087.25 ± 1.2 kg/m3; (w1 = 0.4) 1118.6 ± 1.2 kg/m3.

A word on the mass density: it is mass per unit of volume.
